The record followed here is patent US12403114B2, “Cannabinoid acid ester compositions and uses thereof” (EPM (IP), INC., priority 2019, dated 2025).

Holding throughout (assay type): in vivo
The subject of test [1] is partial meniscectomy/ACL transection rat model of surgical induced osteoarthritis and pain induced incapacitance. The test is described as follows: Weight bearing in rat meniscectomy model versus hyaluronate and corticosteroid, Example 6. The method, then:
Rats were allowed to acclimatize for 1 week, followed by assessment of their weight bearing preference using an incapacitance meter. Unilateral medical meniscectomy and anterior cruciate ligament […] (MMX/ACLT) surgery was performed on the right knee of a subject rat. Weight bearing preference was tested before and after surgery. After 2 weeks, treatments with both intra-articular (1) and. intra-peritoneal (6) administrations of EPM301 began in the EPM301 group. In the hyaluronate (HA) and corticosteroid (CS) groups, a single intra-articular injection was performed 2 weeks after model induction. Weight bearing preference was then assessed 4 and 7 days after the start of therapy.
Wistar Rats (HsdHan female rats 225-249 grams) were acquired from Envigo. The rats were evaluated using an incapacitance tester. They were tested pre-operation, one-week post-operation, two weeks post-operation, prior to injection, 4 and 7 days post injections.
EPM-301 was dissolved in a solution mixture of 1:1:18 EtOH:cremophor:seline to a final concentration of 3.5 mg/mL. Hyaluronic acid (Arthrease, 1% sodium hyaluronate) and Dexamethasone (kem Pharma, Venus, 72, Pol. Ind. Colom II, 08228 Terrassa, Barcelona) were acquired.
Intra-articular (i.a.) injection was carried out with 100 uL and intra-peritoneal (i.p.) injections were carried out with 150 uL. All were injected i.a. in the first day. EPM-301 was injected via i.p. administration on the first day, and for 5 additional days everyday via i.p. administration.
Student's t-test was performed at the last follow-up time to determine effect of the therapy as primary endpoint. The level of significance was 0.05 alpha. ANOVA was used to compare all time points, a post-hob analysis with the Scheffe all comparisons method was performed. Calculations were performed using the Analyze-it Excel add-on function.
The percentage of weight bearing was calculated as the amount of weight born (in grams) on the right hind limb divided by the amount of weight born on the left hind limb. This ratio was expressed as percentage weight bearing. Prior to operation the Rt/Lt weight bearing in both groups was similar. There were 4 animals in the EPM-301 treated group and 8 animals in each of the HA and CS treated groups, with a total of 20 tested subjects.

In test [2] the test system is partial meniscectomy/ACL transection rat model of surgical induced osteoarthritis. The test is described as follows: Morphological evaluation of the joint surfaces (osteophyte, gross surface, articular surface damage), Example 6. The method, then: Morphological evaluation of the joint surfaces was performed using digital images of the joint. The parameters evaluated included percentage of articular surface damage of the proximal tibia calculated as the area of lesions divided by the total condylar surface area, gross surface score and osteophyte score as described (Yanagisawa et al. BMC Musculoskeletal Disorders. April 2016; 17:188).
The gross finding score in the articular cartilage was graded as follows: • (i) Grade 1—intact articular surface; • (ii) Grade 2—minimal osteophyte; • (iii) Grade 3—over spur formation; • (iv) Grade 4—width of erosion area 0 to 0.5 mm • (v) Grade 5—width of erosion area 0.5 to 1 mm. • (vi) Grade 6—width erosion area 1 to 1.5 mm • (vii) Grade 7—width of erosion area 1.5 to 2.0 mm • (viii) Grade 8—width of erosion area >2.0 mm
The osteophyte score was graded as follows: • (i) Grade 0—normal around the medial tibia; • (ii) Grade 1—osteophyte formation ⅓ around the medial tibia; • (iii) Grade 2—osteophyte formation halfway around the medial tibia; • (iv) Grade 3—osteophyte formation ⅔ around the medial tibia; • (v) Grade 4—osteophyte formation all around the medial tibia.

Test [3] relates to weight gain in rats with an adipogenic diet. Put plainly: Rat model of diet induced obesity (Teklad TD95217 adipogenic diet), weight gain. The settings on record: 150 uL of 3.5 mg/ml i.p., each animal its own control (FIG. 33). The procedure:
The study was designed as a N-of-1 study, where each animal served as its own control. The advantage of this model is the elimination of the need for a control group and reduction of […] variation. The study was performed in two phases: a short-term study with one week exposure to EPM-301 and a long-term study with 8 weeks exposure to EPM-301 (injected daily). In the long-term study, a control group was used including animals fed the adipogenic diet.
EPM-301 was dissolved in 1:1:18 EtOH:cremophor:seline solution to final concentration of 3.5 mg/ml.
In the short-term experiment, all rats were injected i.p. 150 uL in the first day, and after a 3-day break were then injected i.p. every day for 4 days. In the long-term experiment i.p. injections of 150 uL were carried out daily for 8 weeks. Weight was measured at weeks 0, 1, 3, and 9 after injections.
The rats were weighed on a digital weight weekly in the short-term study for 3 weeks. The rats were weighed on weeks 0, 1, 3, and 9 in the long-term study.
Rats were allowed to acclimatize for 1 week, and then their weights were assessed using a digital weighing machine. Animals are fed an adipogenic diet for two weeks before starting injections.
The weights of the animals were compared at each time point and the change over time calculated. ANOVA was used to determine whether there was a significant change. […]

SMILES strings stand for the structures.

On to `C=C(C)[C@@H]1CCC(C)=CC1c1c(O)cc(CCCCC)c(C(=O)OC)c1O` (stereo partly drawn) [EPM-301, cannabidiolic acid methyl ester], for which the “Rt limb weight bearing” value in test [1] (following injections, EPM-301 i.a. once plus i.p. 6 days, HA and CS single i.a. injection) came to 99.1%. This compound also yielded a weight bearing in test [1] (immediately prior to injection, two weeks following model induction (baseline before treatment)) of 56.6%. In test [2] (as compared to the HA and CS treated groups (FIG. 4)), the gross surface score result is on record as “improvement”. In addition, in test [2] (as compared to the HA and CS treated groups (FIG. 5)), the “percentage of articular surface damage” value is recorded as “less”. Also, the osteophyte score entry in test [2] (relative to the hyaluronic acid and the corticosteroid treatments (FIG. 3)) is listed as “superiority”. Also, the “weight gain, short-term study” value in test [3] is recorded as “halting”.
